Source: patent US8946247B2, “Quinazoline carboxamide azetidines” (Merck Patent GmbH, priority 2010, dated 2015)

Experiments:
Akt1 = target: T1, Akt1 (Homo sapiens, UniProt P31749); assay: AKT/PKB Kinase Assay; assay type: biochemical; settings: His-AKT (Full Length), 160 uM ATP, 90 min at 25 C
T1 construct: 0.1 ng/ul His-AKT (Full Length), (Invitrogen, Part #P2999, Lot #641228C); His; purchased Invitrogen P2999
Procedure, shortened: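 Full-length His-tagged human AKT1 (0.1 ng/ul) with 1 uM FITC-labelled GRPRTSSFAEG peptide, 160 uM ATP, 1 mM MgCl2, 1 mM DTT in 100 mM HEPES pH 7.5, 90 min at 25 C, EDTA stop. Substrate/product peptides separated by off-chip mobility shift; IC50 fitted from % conversion dose-response.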

pS6 MDA-MB-468 = assay: Cellular Activity Assay (phospho-S6 in MDA-MB-468 cells); assay type: cell-based; settings: Homo sapiens, 2 hr compound incubation, percent pS6-positive cells
Procedure, shortened: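 MDA-MB-468 cells treated with compound for 2 hr, fixed, then immunostained for phospho-S6 with propidium iodide counterstain. Green (pS6) and red (total) cells counted by laser-scanning cytometry; IC50 derived from percent pS6-positive cells versus compound concentration.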

P70S6K (T412E mutant) = target: T2, P70S6K (T412E mutant) (Homo sapiens, UniProt P23443, T412E); assay: p70S6K Enzyme Assay; assay type: biochemical; settings: 24 μM ATP, 90 min at 25° C., Caliper mobility shift
T2 construct: purchased Millipore
Procedure, shortened: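 Mobile-shift assay: 3 nM P70S6K T412E with 24 μM ATP and 1 μM FITC-labelled S6-derived peptide in Hepes pH 7.5, MgCl2, DTT, Brij; 90 min at 25 °C, stopped with EDTA. Substrate/phosphopeptide ratio separated electrophoretically on Caliper LabChip; IC50 determined.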

Aurora B = target: T3, Aurora B (Homo sapiens, UniProt Q96GD4); assay: Aurora B Kinase Assay; assay type: biochemical; settings: GST-Aurora B (1-344), 10 uM ATP, 90 min at 25 C
T3 construct: GST-Aurora B (1-344 amino acids); GST (N); purchased Carna Biosciences 05-102
Procedure, shortened: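 GST-Aurora B (aa 1-344, with His-INCENP) at 0.1 ng/ul, 10 uM ATP and 1 uM FITC-LRRASLG peptide in HEPES pH 7.5 with MgCl2 and DTT, 90 min at 25 C, stopped with EDTA. Substrate-to-product conversion read by off-chip mobility shift; IC50 from sigmoidal dose-response fit.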

T1 sequence (P31749 whole entry): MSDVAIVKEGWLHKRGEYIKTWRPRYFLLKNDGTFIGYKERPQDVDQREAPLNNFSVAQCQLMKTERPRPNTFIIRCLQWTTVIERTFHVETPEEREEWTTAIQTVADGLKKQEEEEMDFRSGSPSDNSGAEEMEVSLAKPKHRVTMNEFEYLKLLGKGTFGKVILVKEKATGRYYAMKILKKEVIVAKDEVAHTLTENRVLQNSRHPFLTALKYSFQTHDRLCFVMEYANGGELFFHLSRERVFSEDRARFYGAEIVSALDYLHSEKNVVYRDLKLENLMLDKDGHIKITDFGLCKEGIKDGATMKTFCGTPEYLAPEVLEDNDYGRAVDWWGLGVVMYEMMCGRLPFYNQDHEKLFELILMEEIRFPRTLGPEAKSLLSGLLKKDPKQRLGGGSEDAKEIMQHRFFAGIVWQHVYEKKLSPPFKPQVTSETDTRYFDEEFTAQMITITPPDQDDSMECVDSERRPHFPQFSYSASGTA
T3 sequence (Q96GD4 whole entry, the tested form may be a part): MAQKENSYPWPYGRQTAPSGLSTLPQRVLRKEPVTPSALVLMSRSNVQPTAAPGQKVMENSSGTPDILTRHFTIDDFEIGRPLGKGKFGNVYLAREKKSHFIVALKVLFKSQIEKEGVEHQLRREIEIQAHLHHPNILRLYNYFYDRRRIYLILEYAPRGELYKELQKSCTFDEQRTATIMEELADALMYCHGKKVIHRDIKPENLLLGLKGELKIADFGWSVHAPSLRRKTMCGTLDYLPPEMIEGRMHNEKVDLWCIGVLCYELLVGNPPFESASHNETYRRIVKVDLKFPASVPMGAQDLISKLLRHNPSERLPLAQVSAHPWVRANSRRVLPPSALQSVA
T3 sequence (Q9NQS7 803-918 partner limits assumed): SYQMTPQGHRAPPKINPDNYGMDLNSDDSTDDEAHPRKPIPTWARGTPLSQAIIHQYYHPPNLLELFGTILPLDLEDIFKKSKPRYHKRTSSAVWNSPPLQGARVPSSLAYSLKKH
T2 sequence (P23443 1-421 T412E limits assumed): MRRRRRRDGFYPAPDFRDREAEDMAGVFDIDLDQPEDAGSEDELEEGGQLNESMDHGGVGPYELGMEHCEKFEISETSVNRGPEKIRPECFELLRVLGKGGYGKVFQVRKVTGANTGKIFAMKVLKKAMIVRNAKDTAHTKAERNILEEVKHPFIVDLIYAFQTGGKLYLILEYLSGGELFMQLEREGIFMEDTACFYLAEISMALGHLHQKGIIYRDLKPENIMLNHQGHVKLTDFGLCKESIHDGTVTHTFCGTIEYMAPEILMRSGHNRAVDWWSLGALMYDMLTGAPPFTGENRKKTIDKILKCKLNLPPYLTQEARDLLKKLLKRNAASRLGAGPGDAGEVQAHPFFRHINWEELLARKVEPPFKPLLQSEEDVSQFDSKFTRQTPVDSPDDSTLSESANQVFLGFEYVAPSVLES

Structure (SMILES) | IC50 (Akt1) [nM] | IC50 (pS6 MDA-MB-468) [nM] | IC50 (P70S6K (T412E mutant)) [nM] | IC50 (Aurora B) [nM]
CC1CCN1C[C@@H](Nc1ncnc2c(C(N)=O)cccc12)c1ccc(F)c(C(F)(F)F)c1 (stereo partly drawn) [Example 48, 4-[(S)-1-(4-Fluoro-3-trifluoromethyl-phenyl)-2-(2-methyl-azetidin-1-yl)-ethylamino]-quinazoline-8-carboxylic acid amide] | 11 | 391 | 3 | 120
NC(=O)c1cccc2c(N[C@H](CN3CC(F)C3)c3ccc(F)c(C(F)(F)F)c3)ncnc12 [Example 49, 4-[(S)-2-(3-Fluoro-azetidin-1-yl)-1-(4-fluoro-3-trifluoromethyl-phenyl)-ethylamino]-quinazoline-8-carboxylic acid amide] | 16 | 116 | 5 | 540
